In brackets after ≈: the same amount, converted by molar mass.
Target: T1, Metabotropic glutamate receptor 5 (Homo sapiens, UniProt P41594)
Assay: Positive allosteric modulation of human mGluR5 expressed in HEK293A cells assessed as stimulation of glutamate-induced calcium flux by FLIPR method
Assay type: functional, cell-based, HEK293-A
Conditions: not given

| Compound | EC50 [nM] |
| --- | --- |
| Cc1ccc(N2CC(c3nc(-c4ccccc4)no3)CC2=O)cc1 (stereo not given) | 384 |
| O=C1CC(c2nc(-c3ccccn3)no2)CN1c1ccc(F)cc1 (stereo not given) | > 10000 |
| O=C1COc2ccccc2N1CCc1nc(-c2cccc(Cl)c2)no1 | > 10000 |
| Cc1ccc(N2CC(c3nc(-c4cccc(F)c4)no3)CC2=O)cc1 (stereo not given) | 1200 |
| O=c1sc2ccccc2n1Cc1nc(-c2cccc(Cl)c2)no1 | > 10000 |
| O=C1CC(c2nc(-c3cccc(F)c3)no2)CN1c1ccc(Cl)c(Cl)c1 (stereo not given) | 3200 |
| O=C1COc2ccccc2N1Cc1nc(-c2cccc(Cl)c2)no1 | > 10000 |
| Cc1cccc(-c2noc(C3CC(=O)N(c4ccc(F)cc4)C3)n2)n1 (stereo not given) | > 10000 |
| Cc1cccc(-c2noc(C3CC(=O)N(c4ccc(Cl)cc4)C3)n2)n1 (stereo not given) | > 10000 |
| O=C1CC(c2nc(-c3ccc(F)cc3)no2)CN1c1ccc(Cl)cc1 (stereo not given) | 1700 |
| Cc1ccc(N2CC(c3nc(-c4cccc(C(F)(F)F)c4)no3)CC2=O)cc1 (stereo not given) | 3400 |

Second part, the compound after the results:

| EC50 [nM] | Compound |
| --- | --- |
| 1100 | COc1cccc(-c2noc(C3CC(=O)N(c4ccc(F)cc4)C3)n2)c1 (stereo not given) |
| > 10000 | COc1ccc(N2CC(c3nc(-c4cccc(Cl)c4)no3)CC2=O)cc1 (stereo not given) |
| > 10000 | COc1cccc(N2CC(c3nc(-c4cccc(Cl)c4)no3)CC2=O)c1 (stereo not given) |
| 5.1 | Cc1cccc(-c2noc(C3CC(=O)N(c4ccc(F)cc4)C3)n2)c1 (single isomer, unassigned; (-)) |
| 170 | Cc1cccc(-c2noc(C3CC(=O)N(c4ccc(Cl)cc4)C3)n2)c1 (stereo not given) |
| 630 | O=C1CC(c2nc(-c3cccc(F)c3)no2)CN1c1ccc(Cl)cc1 (stereo not given) |
| 140 | O=C1CC(c2nc(-c3cccc(Cl)c3)no2)CN1c1ccc(Cl)cc1 (stereo not given) |

Same assay, conditions: HEK293-A

| Compound | Emax [%] |
| --- | --- |
| Cc1ccc(N2CC(c3nc(-c4ccccc4)no3)CC2=O)cc1 (stereo not given) | 41 |
| O=C1CC(c2nc(-c3ccccn3)no2)CN1c1ccc(F)cc1 (stereo not given) | -41 |
| O=C1COc2ccccc2N1CCc1nc(-c2cccc(Cl)c2)no1 | -29 |
| Cc1ccc(N2CC(c3nc(-c4cccc(F)c4)no3)CC2=O)cc1 (stereo not given) | 130 |
| O=c1sc2ccccc2n1Cc1nc(-c2cccc(Cl)c2)no1 | 7 |
| O=C1CC(c2nc(-c3cccc(F)c3)no2)CN1c1ccc(Cl)c(Cl)c1 (stereo not given) | 140 |
| O=C1COc2ccccc2N1Cc1nc(-c2cccc(Cl)c2)no1 | -28 |
| Cc1cccc(-c2noc(C3CC(=O)N(c4ccc(F)cc4)C3)n2)n1 (stereo not given) | -15 |
| Cc1cccc(-c2noc(C3CC(=O)N(c4ccc(Cl)cc4)C3)n2)n1 (stereo not given) | 1 |
| O=C1CC(c2nc(-c3ccc(F)cc3)no2)CN1c1ccc(Cl)cc1 (stereo not given) | 33 |
| Cc1ccc(N2CC(c3nc(-c4cccc(C(F)(F)F)c4)no3)CC2=O)cc1 (stereo not given) | 32 |

Next, values leading:

| Emax [%] | Compound |
| --- | --- |
| 78 | Cc1cccc(-c2noc(C3CC(=O)N(c4ccc(F)cc4)C3)n2)c1 (racemic) |
| 48 | COc1cccc(-c2noc(C3CC(=O)N(c4ccc(F)cc4)C3)n2)c1 (stereo not given) |
| 47 | COc1ccc(N2CC(c3nc(-c4cccc(Cl)c4)no3)CC2=O)cc1 (stereo not given) |
| -37 | COc1cccc(N2CC(c3nc(-c4cccc(Cl)c4)no3)CC2=O)c1 (stereo not given) |
| 1.6 | Cc1cccc(-c2noc(C3CC(=O)N(c4ccc(Cl)cc4)C3)n2)c1 (stereo not given) |
| 120 | O=C1CC(c2nc(-c3cccc(F)c3)no2)CN1c1ccc(Cl)cc1 (stereo not given) |
| 67 | O=C1CC(c2nc(-c3cccc(Cl)c3)no2)CN1c1ccc(Cl)cc1 (stereo not given) |
| 55 | O=C1CC(c2nc(-c3cccc(Cl)c3)no2)CN1c1ccc(F)cc1 (racemic) |

Target: T1, Metabotropic glutamate receptor 5
Assay: Negative allosteric modulation of human mGluR5 expressed in HEK293A cells assessed as inhibition of glutamate-induced calcium flux by FLIPR method
Assay type: functional, cell-based, HEK293-A
Conditions: not given

| Compound | IC50 [nM] |
| --- | --- |
| O=C1CC(c2nc(-c3cccc(Cl)c3)no2)CN1Cc1ccc(F)cc1 (stereo not given) | 3600 |
| CC(C)CN1CC(c2nc(-c3cccc(Cl)c3)no2)CC1=O (stereo not given) | 920 |
| C[C@H](c1ccccc1)N1C[C@H](c2nc(-c3cccc(Cl)c3)no2)CC1=O | 1600 |
| O=C1COc2ccccc2N1CCc1nc(-c2cccc(Cl)c2)no1 | 800 |
| O=c1sc2ccccc2n1Cc1nc(-c2cccc(Cl)c2)no1 | 1100 |
| O=C1COc2ccccc2N1Cc1nc(-c2cccc(Cl)c2)no1 | 770 |

Further lines, results first:

| IC50 [nM] | Compound |
| --- | --- |
| 3520 | COc1ccc(N2CC(c3nc(-c4cccc(Cl)c4)no3)CC2=O)cc1 (stereo not given) |
| 690 | COc1cccc(N2CC(c3nc(-c4cccc(Cl)c4)no3)CC2=O)c1 (stereo not given) |
| > 10000 | O=C1CC(c2nc(-c3cccc(Cl)c3)no2)CN1c1ccc(Cl)cc1 (stereo not given) |

Same assay, conditions: HEK293-A, concentration not given here

| Compound | inhibition [%] |
| --- | --- |
| O=C1COc2ccccc2N1CCc1nc(-c2cccc(Cl)c2)no1 | 88 |
| O=c1sc2ccccc2n1Cc1nc(-c2cccc(Cl)c2)no1 | 71 |
| O=C1COc2ccccc2N1Cc1nc(-c2cccc(Cl)c2)no1 | 84 |

The next lines start with the values.

| inhibition [%] | Compound |
| --- | --- |
| 2 | COc1ccc(N2CC(c3nc(-c4cccc(Cl)c4)no3)CC2=O)cc1 (stereo not given) |
| 92 | COc1cccc(N2CC(c3nc(-c4cccc(Cl)c4)no3)CC2=O)c1 (stereo not given) |
| 44 | O=C1CC(c2nc(-c3cccc(Cl)c3)no2)CN1c1ccc(Cl)cc1 (stereo not given) |

Tested on: not listed separately
Assay: Solubility of the compound in […] by UPLC method
Assay type: physicochemical
Conditions: not given

| solubility [µM] | Compound |
| --- | --- |
| 23 (≈ 7.03 µg/mL) | CC(C)N1CC(c2nc(-c3cccc(Cl)c3)no2)CC1=O (stereo not given) |
| 23 (≈ 8.55 µg/mL) | O=C1CC(c2nc(-c3cccc(Cl)c3)no2)CN1Cc1ccc(F)cc1 (stereo not given) |
| 23 (≈ 7.36 µg/mL) | CC(C)CN1CC(c2nc(-c3cccc(Cl)c3)no2)CC1=O (stereo not given) |
| 23 (≈ 7.76 µg/mL) | O=C1CC(c2nc(Cc3ccccc3)no2)CN1c1ccc(F)cc1 (stereo not given) |
| 23 (≈ 8.46 µg/mL) | C[C@H](c1ccccc1)N1C[C@H](c2nc(-c3cccc(Cl)c3)no2)CC1=O |
| 26 (≈ 8.43 µg/mL) | O=C1CC(c2nc(-c3ccccn3)no2)CN1c1ccc(F)cc1 (stereo not given) |
| 26 (≈ 8.8 µg/mL) | Cc1cccc(-c2noc(C3CC(=O)N(c4ccc(F)cc4)C3)n2)n1 (stereo not given) |
| 26 (≈ 9.22 µg/mL) | Cc1cccc(-c2noc(C3CC(=O)N(c4ccc(Cl)cc4)C3)n2)n1 (stereo not given) |

Target: T1, Metabotropic glutamate receptor 5
Assay: Displacement of [3H]NAM from mGluR5
Conditions: not given
Target sequence in this assay (P41594 whole entry): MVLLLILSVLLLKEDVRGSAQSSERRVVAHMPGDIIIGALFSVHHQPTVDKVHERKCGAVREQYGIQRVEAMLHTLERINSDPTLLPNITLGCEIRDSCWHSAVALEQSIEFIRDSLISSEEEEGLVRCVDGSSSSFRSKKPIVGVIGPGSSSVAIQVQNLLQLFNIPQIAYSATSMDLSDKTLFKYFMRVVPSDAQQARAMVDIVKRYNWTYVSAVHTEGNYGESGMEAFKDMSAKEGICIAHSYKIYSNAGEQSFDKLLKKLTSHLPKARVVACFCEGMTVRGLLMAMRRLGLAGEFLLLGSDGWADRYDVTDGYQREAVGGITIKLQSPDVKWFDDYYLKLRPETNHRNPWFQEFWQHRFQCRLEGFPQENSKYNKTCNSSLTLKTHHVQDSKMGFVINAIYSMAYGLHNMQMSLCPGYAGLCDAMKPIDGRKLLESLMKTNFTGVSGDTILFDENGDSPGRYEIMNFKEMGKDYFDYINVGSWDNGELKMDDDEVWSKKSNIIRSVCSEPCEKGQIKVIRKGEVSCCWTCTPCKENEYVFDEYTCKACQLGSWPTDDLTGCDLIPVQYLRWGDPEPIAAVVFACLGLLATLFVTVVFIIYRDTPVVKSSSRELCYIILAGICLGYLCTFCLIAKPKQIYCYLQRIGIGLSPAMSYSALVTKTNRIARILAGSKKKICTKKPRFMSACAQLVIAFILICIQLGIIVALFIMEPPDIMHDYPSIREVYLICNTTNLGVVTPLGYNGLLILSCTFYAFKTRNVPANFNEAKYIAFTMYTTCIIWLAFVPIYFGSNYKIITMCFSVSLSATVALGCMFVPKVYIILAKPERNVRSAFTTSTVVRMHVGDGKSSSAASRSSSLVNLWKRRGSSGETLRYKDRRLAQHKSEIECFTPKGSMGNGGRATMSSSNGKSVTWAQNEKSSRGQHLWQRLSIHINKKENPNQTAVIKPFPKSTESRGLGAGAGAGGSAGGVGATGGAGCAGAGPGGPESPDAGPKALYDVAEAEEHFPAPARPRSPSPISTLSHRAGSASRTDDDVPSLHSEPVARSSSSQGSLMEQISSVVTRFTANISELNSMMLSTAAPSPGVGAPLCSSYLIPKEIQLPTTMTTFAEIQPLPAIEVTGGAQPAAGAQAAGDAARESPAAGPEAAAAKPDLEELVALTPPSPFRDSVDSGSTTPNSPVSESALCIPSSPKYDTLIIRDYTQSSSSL

| Ki [nM] | Compound |
| --- | --- |
| 230 | Cc1cccc(-c2noc(C3CC(=O)N(c4ccc(F)cc4)C3)n2)c1 (single isomer, unassigned; (-)) |

Tested on: not listed separately
Assay: Plasma protein binding in human plasma
Assay type: ADME, cell-free
Conditions: read-out: PPB (converted)

| fraction unbound | Compound |
| --- | --- |
| 0.007 | Cc1cccc(-c2noc(C3CC(=O)N(c4ccc(F)cc4)C3)n2)c1 (single isomer, unassigned; (-)) |

Tested on: not listed separately
Assay: Plasma protein binding in rat plasma
Assay type: ADME, cell-free
Conditions: read-out: PPB (converted)

| fraction unbound | Compound |
| --- | --- |
| 0.003 | Cc1cccc(-c2noc(C3CC(=O)N(c4ccc(F)cc4)C3)n2)c1 (single isomer, unassigned; (-)) |

Tested on: not listed separately
Assay: Drug uptake in rat brain at 10 mg/kg, ip administered as single dose after 1 hr
Assay type: ADME, organism-based
Set-up: dose 10 mg/kg, route intraperitoneal
Conditions: read-out: Drug uptake

| concentration at 1 h [ng/g] | Compound |
| --- | --- |
| 342 | Cc1cccc(-c2noc(C3CC(=O)N(c4ccc(F)cc4)C3)n2)c1 (single isomer, unassigned; (-)) |

Tested on: not listed separately
Assay: Plasma concentration in rat at 10 mg/kg, ip administered as single dose after 1 hr
Assay type: ADME, organism-based
Set-up: dose 10 mg/kg, route intraperitoneal
Conditions: not given

| concentration at 1 h [ng/mL] | Compound |
| --- | --- |
| 46 | Cc1cccc(-c2noc(C3CC(=O)N(c4ccc(F)cc4)C3)n2)c1 (single isomer, unassigned; (-)) |

Tested on: not listed separately
Assay: Ratio of drug uptake in brain to plasma in rat at 10 mg/kg, ip administered as single dose after 1 hr
Assay type: ADME, organism-based
Set-up: dose 10 mg/kg, route intraperitoneal
Conditions: read-out: BPR

| Kp at 1 h | Compound |
| --- | --- |
| 7.5 | Cc1cccc(-c2noc(C3CC(=O)N(c4ccc(F)cc4)C3)n2)c1 (single isomer, unassigned; (-)) |

Tested on: not listed separately
Assay: Apparent permeability from apical to basolateral direction in MDCKI cells expressing MDR
Assay type: ADME, cell-based, Canis lupus familiaris
Conditions: dog, MDCK-MDR1

| Papp A→B [×10⁻⁶ cm/s] | Compound |
| --- | --- |
| 20 | Cc1cccc(-c2noc(C3CC(=O)N(c4ccc(F)cc4)C3)n2)c1 (single isomer, unassigned; (-)) |

Tested on: not listed separately
Assay: Apparent permeability from basolateral to apical direction in MDCKI cells expressing MDR
Assay type: ADME, cell-based, Canis lupus familiaris
Conditions: dog, MDCK-MDR1

| Papp B→A [×10⁻⁶ cm/s] | Compound |
| --- | --- |
| 6.4 | Cc1cccc(-c2noc(C3CC(=O)N(c4ccc(F)cc4)C3)n2)c1 (single isomer, unassigned; (-)) |

Tested on: Liver
Assay: Intrinsic clearance in human liver
Assay type: ADME, tissue-based
Conditions: not given

| CLH [L/min] | Compound |
| --- | --- |
| 1 | Cc1cccc(-c2noc(C3CC(=O)N(c4ccc(F)cc4)C3)n2)c1 (single isomer, unassigned; (-)) |

Tested on: Liver
Assay: Intrinsic clearance in rat liver
Assay type: ADME, tissue-based
Conditions: not given

| CLH [mL/min] | Compound |
| --- | --- |
| 20 | Cc1cccc(-c2noc(C3CC(=O)N(c4ccc(F)cc4)C3)n2)c1 (single isomer, unassigned; (-)) |

— ChEMBL document CHEMBL2069226, “N-Aryl pyrrolidinonyl oxadiazoles as potent mGluR5 positive allosteric modulators” (Bioorg Med Chem Lett, 2012)
